In US6329000A, “Extract of pine needle and the use thereof” (priority 1999, dated 2001):

Columns and labels:
blood pressure = assay: Clinical test of the composition to lower blood pressure; assay type: in vivo, human; conditions: 44 cases per group, 20 days
Description: All of them were diagnosed as hypertension according to the diagnostic standard of WHO. […] The patients of the control group were treated with Captopril. The patients of the control group were adults aged below 59, and their average age was 47±7.8. The patients stopped taking hypotensor a week before taking part in the test. […] If the blood pressure was not reduced to the normal scope, then a dose (0.5 g) was increased every 5 days. The crescendo every 5 days, and the maximal dose couldn't exceed 3 g each time and 3 times a day. The whole course of treatment was 20 days. 25 mg Captopril was given to the patients of the control group each time and three times a day. […] The crescendo every 5 days, and the maximal dose couldn't exceed 75 mg each time and three times a day. The whole course of treatment was 20 days too.
The blood pressure before treatment: All the patients stopped taking hypotensor a week before treatment. Then the blood pressure was measured once a day continuously for 5 days. Took the mean of the 5 values (non same day) as the blood pressure before treatment.
The blood pressure after treatment: Measured the blood pressure once a day after the treatment. Took the mean of the 5 values measured on the 16th, 17th, 18th, 19th, 20th day after the treatment as the blood pressure after the treatment. Examined the blood routine, the urine routine, the functions of liver, the renal function, the serum electrolyte (including K^+, Na^+, Cl^-), the blood-lipid, the blood sugar, the ECG of every day before and after the treatment.
The criteria of therapeutic effect:
As to the systolic hypertension, the systolic pressure was reduced more than 4 kpa. Ineffectiveness: The decrement of the blood pressure after the treatment didn't achieve the above standard.

blood-lipid = assay: Hypolipidemic test in rabbits on high fat diet; assay type: in vivo, rabbit; conditions: positive control 0.3 g/kg/d
Description: Experimental animals: 60 Beijing white rabbits with big ears, all male with body weight of 1.5-2 kg.
Drugs and reagents: cholesterol (produced at Beijing Chemical Reagent Company). Propyl thiooxyuracil tablet (refers to PTV hereafter, produced in Germany, 50 mg each tablet), lard (prepared by ourselves). The extract powder from pine needle of the invention (refers to the power of pine needle hereafter). Inostitol hexanicotinate tablet (produced by the second Pharmaceutical Factory of Beijing, 0.2 each tablet). The kits of total cholesterol, triglyceride, high density lipoprotein, and low density lipoprotein (produced by Beijing Zhongsheng Biotechnical Company).
Methods: The white rabbits with big ears were divided into 5 groups at random after raised for 10 days with normal diet. 10 rabbits each group. The high fat diet was given after taking blood from the helicine veins of the fasting rabbits in the morning. Determined the blood-lipid of the blood samples. The high fat diet included cholesterol 2 g/kg (body weight)/d, lard 0.5 g/kg/d, PTV 12.5 mg/kg/d. In the forth group, gave […] of the powder of pine needle along with the high fat diet to the rabbits of (the prevention group). Took blood from the fasting rabbits again and determined their body weights after 15 days of high-fat diet. Then stopped the high-fat diet and changed it for normal diet: (1) blank control group: giving distilled water 10 ml each day with the gavage method; (2) positive control group: giving Inositol hexnicotinate tablets, 0.3 g/kg/d; (3) low dose group: giving the powder of pine needle, 0.25 g/kg/d; (4) prevention group: went on giving the powder of pine needle 0.75 g/kg/d, 30 days in all; (5) high dose group: giving the powder of pine needle, 1.5 g/kg/d. The powder was dissolve din 10 ml distilled water and gave it with gavage method once a day. Took blood from the fasting rabbits on the fifteenth day after the administration to determine the levels of blood-lipid. The levels of total cholestorol, triglyceride, high density lipoprotein and low density lipoprotein were examined by CHOO-PAP method, GPO-PAP method, PTA-Mg^2+ deposition method and PVS one-step deposition method, respectively. The instrument used was Hitachi, Model 750 automatic biochemical analyzer.

| SMILES | Effectiveness (blood pressure) [case number] | ineffectiveness (blood pressure) [case number] | total effective rate (blood pressure) [%] | remarkable effectiveness (blood pressure; composition 1.5-3 g t.i.d., captopril 25-75 mg t.i.d.) [case number] | high density lipoprotein IR % (increasing rate) (blood-lipid) [%] | low density lipoprotein DR % (blood-lipid) [%] | total cholesterol DR % (decreasing rate) (blood-lipid) [%] | triglyceride DR % (blood-lipid) [%] | high density lipoprotein after treatment (blood-lipid; after HFD 0.83) | triglyceride after treatment (blood-lipid; after HFD 1.87) | low density lipoprotein after treatment (blood-lipid; after HFD 9.20) | total cholesterol after treatment (blood-lipid; after HFD 26.67) |
| --- | --- | --- | --- | --- | --- | --- | --- | --- | --- | --- | --- | --- |
| C[C@H](CS)C(=O)N1CCC[C@H]1C(=O)O [captopril] | 10 | 8 | 82 | 26 | – | – | – | – | – | – | – | – |
| O=C(O[C@H]1[C@H](OC(=O)c2cccnc2)[C@@H](OC(=O)c2cccnc2)[C@H](OC(=O)c2cccnc2)[C@@H](OC(=O)c2cccnc2)[C@H]1OC(=O)c1cccnc1)c1cccnc1 [Inositol hexanicotinate] | – | – | – | – | 8.90 | 37.38 | 28.20 | 16.03 | 0.74 | 1.64 | 5.71 | 19.48 |
